Usually DC50 stands for the concentration at which degradation of the target reaches its halfway point. One may read the IC50 as the concentration at which inhibition is half-maximal. What is called EC50 is the concentration at which the effect is half-maximal.

The text below walks through data of ChEMBL document CHEMBL4616725, “Global PROTAC Toolbox for Degrading BCR-ABL Overcomes Drug-Resistant Mutants and Adverse Effects” (J Med Chem, 2020).

For series [1], the target named is T1, Protein cereblon/Tyrosine-protein kinase ABL1/Breakpoint cluster region protein (Homo sapiens, UniProt P00519+P11274+Q96SW2). Kind of series: Protac activity at Cereblon/BCR/ABL in human K562 cells assessed as induction of BCR-ABL degradation incubated for 32 to 48 hrs by Western blot analysis. Type of series: cell-based.
Another series deals with K562. In words: Antiproliferative activity against human K562 cells incubated for 3 days by CCK8 assay. Type of series: functional, cell-based. Particulars: K562, 72 h. For orientation: Formazan colour is commonly taken as a measure of viable cells.
The test system of series [2] is Protein cereblon/Tyrosine-protein kinase ABL1/Breakpoint cluster region protein (Homo sapiens), P00519+P11274+Q96SW2 [T315I]. Kind of series: Protac activity at Cereblon/BCR/ABL T315I mutant (unknown origin) expressed in mouse BaF3 cells assessed as reduction in BCR-ABL T315I mutant protein levels at 3 to 30000 nM incubated for 32 hrs by Western blot analysis. In kind it is cell-based. In general terms: Immunoblotting shows a protein as a band on a membrane.

In the next series the test system is BaF3. Kind of series: Antiproliferative activity against wild type mouse BA/F3 cells incubated for 3 days by CCK8 assay. In kind it is cell-based. The note with it: BaF3, 72 h.
Series [3] deals with Protein cereblon/Tyrosine-protein kinase ABL1/Breakpoint cluster region protein (Homo sapiens, UniProt P00519+P11274+Q96SW2, T315I). Type of series: cell-based, BaF3.
Series [4] has as its system Protein cereblon/Tyrosine-protein kinase ABL1/Breakpoint cluster region protein (Homo sapiens), P00519+P11274+Q96SW2 [E255K]. In words: Protac activity at Cereblon/BCR/ABL E255K mutant (unknown origin) expressed in human HeLa cells assessed as reduction in BCR-ABL E255K mutant protein levels at 10 to 10000 nM incubated for 32 hrs by Western blot analysis. In kind it is cell-based.

Series [5] concerns Protein cereblon/Tyrosine-protein kinase ABL1/Breakpoint cluster region protein (Homo sapiens), P00519+P11274+Q96SW2 [H396R]. In words: Protac activity at Cereblon/BCR/ABL H396R mutant (unknown origin) expressed in human HeLa cells assessed as reduction in BCR-ABL H396R mutant protein levels at 10 to 10000 nM incubated for 32 hrs by Western blot analysis. Type of series: cell-based.

In series [6] the test system is Protein cereblon/Tyrosine-protein kinase ABL1/Breakpoint cluster region protein (Homo sapiens), P00519+P11274+Q96SW2 [V468F]. Kind of series: Protac activity at Cereblon/BCR/ABL V468F mutant (unknown origin) expressed in human HeLa cells assessed as reduction in BCR-ABL V468F mutant protein levels at 10 to 10000 nM incubated for 32 hrs by Western blot analysis. Type of series: cell-based.

The next series relates to H9c2. In words: Antiproliferative activity against rat H9C2 cells incubated for 3 days by CCK8 assay. In kind it is cell-based. Particulars: H9c2, 72 h.
Series [7] has as its system HUVEC. In words: Antiproliferative activity against human HUVEC incubated for 3 days by CCK8 assay. The note with it: 72 h. In kind it is cell-based.
Series [8] addresses T2, Tyrosine-protein kinase ABL1 (Homo sapiens, UniProt P00519, T315I). In words: Inhibition of human ABL T315I mutant using EAIYAAPFAKKK substrate and [gamma-33P]-ATP incubated for 40 mins by scintillation counting method.
Series [9] concerns the target Tyrosine-protein kinase Lyn (Homo sapiens, UniProt P07948). Kind of series: Inhibition of human LYN using poly(Glu,Tyr)4:1 substrate and [gamma-33P]-ATP incubated for 40 mins by scintillation counting method.
Series [10] has as its target T3, Proto-oncogene tyrosine-protein kinase Src (Homo sapiens, UniProt P12931). In words: Inhibition of human c-SRC using poly(Glu,Tyr)4:1 substrate and [gamma-33P]-ATP incubated for 40 mins by scintillation counting method.
Series [11] concerns the target Vascular endothelial growth factor receptor 2 (Homo sapiens, UniProt P35968). In words: Inhibition of human VEGFR2 using MBP substrate and [gamma-33P]-ATP incubated for 40 mins by scintillation counting method.
The test system of series [12] is HUVEC. In words: Toxicity in HUVEC assessed as inhibition of tube formation at 1 uM incubated for 20 hrs by optical microscopy based matrigel-based assay. Type of series: cell-based. The note with it: human.
Series [13] has as its target T1, Protein cereblon/Tyrosine-protein kinase ABL1/Breakpoint cluster region protein. In words: Protac activity at Cereblon/BCR/ABL in human K562 cells assessed as synergistic antiproliferation effect by measuring combination index at 0.25 to 4 times alone antiproliferative EC50 ibn presence of hedgehog pathway inhibitor […] by Chou-Talalay method. In kind it is cell-based.

The target of series [14] is Protein cereblon/Receptor-type tyrosine-protein kinase FLT3 (Homo sapiens, UniProt P36888+Q96SW2). In words: Protac activity at Cereblon/Flt3 in human K562 cells assessed as reduction in Flt3 protein levels at 3 to 30000 nM incubated for 48 hrs by Western blot analysis. Type of series: ADME, cell-based.
Chain of Protein cereblon/Receptor-type tyrosine-protein kinase FLT3 (P36888 whole entry): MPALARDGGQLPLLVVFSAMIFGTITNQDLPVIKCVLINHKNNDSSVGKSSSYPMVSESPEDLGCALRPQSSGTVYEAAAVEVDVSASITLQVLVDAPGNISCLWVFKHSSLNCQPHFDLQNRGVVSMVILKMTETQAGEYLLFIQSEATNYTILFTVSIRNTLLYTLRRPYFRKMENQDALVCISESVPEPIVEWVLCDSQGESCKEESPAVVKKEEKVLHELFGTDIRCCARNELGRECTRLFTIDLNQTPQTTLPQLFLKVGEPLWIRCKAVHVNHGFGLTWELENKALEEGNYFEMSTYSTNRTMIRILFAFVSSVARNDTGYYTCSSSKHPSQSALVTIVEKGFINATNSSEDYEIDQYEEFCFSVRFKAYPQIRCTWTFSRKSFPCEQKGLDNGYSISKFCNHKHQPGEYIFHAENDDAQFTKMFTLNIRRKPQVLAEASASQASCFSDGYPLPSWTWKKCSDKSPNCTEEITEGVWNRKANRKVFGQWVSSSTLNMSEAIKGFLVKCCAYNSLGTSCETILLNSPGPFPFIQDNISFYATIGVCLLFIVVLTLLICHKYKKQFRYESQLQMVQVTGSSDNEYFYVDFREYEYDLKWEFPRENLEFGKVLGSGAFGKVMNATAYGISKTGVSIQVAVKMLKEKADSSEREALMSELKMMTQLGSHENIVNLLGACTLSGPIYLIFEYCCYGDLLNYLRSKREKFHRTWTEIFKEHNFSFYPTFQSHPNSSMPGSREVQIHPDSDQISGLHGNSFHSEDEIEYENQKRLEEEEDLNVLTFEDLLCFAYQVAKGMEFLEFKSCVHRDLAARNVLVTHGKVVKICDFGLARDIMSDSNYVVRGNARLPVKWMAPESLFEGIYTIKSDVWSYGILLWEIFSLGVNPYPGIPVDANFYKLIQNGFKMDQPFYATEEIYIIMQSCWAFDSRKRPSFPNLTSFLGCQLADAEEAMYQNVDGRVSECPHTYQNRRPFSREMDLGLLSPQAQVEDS
Chain of Protein cereblon/Receptor-type tyrosine-protein kinase FLT3 (Q96SW2 whole entry): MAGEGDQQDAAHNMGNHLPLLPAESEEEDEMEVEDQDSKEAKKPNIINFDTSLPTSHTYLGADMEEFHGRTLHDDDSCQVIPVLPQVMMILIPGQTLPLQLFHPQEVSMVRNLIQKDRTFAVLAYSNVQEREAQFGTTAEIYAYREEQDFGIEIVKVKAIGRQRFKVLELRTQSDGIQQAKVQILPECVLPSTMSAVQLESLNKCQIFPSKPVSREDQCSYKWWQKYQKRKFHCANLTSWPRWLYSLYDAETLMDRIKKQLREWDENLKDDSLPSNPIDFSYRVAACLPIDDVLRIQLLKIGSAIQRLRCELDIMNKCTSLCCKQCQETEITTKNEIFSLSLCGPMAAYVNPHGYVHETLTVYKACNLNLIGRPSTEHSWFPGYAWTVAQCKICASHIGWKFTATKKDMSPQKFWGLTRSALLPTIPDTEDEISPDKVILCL
Series [15] concerns the target Protein cereblon/Proto-oncogene tyrosine-protein kinase Src (Homo sapiens, UniProt P12931+Q96SW2). Kind of series: Protac activity at Cereblon/Src in human K562 cells assessed as reduction in Src protein levels at 3 to 30000 nM incubated for 48 hrs by Western blot analysis. In kind it is ADME, cell-based. Particulars: k562, 48 h, 30 µM.
Series [16] concerns the target Protein cereblon/Mast/stem cell growth factor receptor Kit (Homo sapiens, UniProt P10721+Q96SW2). In words: Protac activity at Cereblon/C-Kit in human K562 cells assessed as reduction in C-Kit protein levels at 3 to 30000 nM incubated for 48 hrs by Western blot analysis. Particulars: k562, 48 h, 30 µM. In kind it is ADME, cell-based.
In series [17] the target is Protein cereblon/Platelet-derived growth factor receptor alpha (Homo sapiens, UniProt P16234+Q96SW2). In words: Protac activity at Cereblon/PDGFRalpha in human K562 cells assessed as reduction in PDGFRalpha protein levels at 3 to 30000 nM incubated for 48 hrs by Western blot analysis. Type of series: ADME, cell-based. Particulars: k562, 48 h, 30 µM.
Chain of Protein cereblon/Platelet-derived growth factor receptor alpha (P16234 whole entry): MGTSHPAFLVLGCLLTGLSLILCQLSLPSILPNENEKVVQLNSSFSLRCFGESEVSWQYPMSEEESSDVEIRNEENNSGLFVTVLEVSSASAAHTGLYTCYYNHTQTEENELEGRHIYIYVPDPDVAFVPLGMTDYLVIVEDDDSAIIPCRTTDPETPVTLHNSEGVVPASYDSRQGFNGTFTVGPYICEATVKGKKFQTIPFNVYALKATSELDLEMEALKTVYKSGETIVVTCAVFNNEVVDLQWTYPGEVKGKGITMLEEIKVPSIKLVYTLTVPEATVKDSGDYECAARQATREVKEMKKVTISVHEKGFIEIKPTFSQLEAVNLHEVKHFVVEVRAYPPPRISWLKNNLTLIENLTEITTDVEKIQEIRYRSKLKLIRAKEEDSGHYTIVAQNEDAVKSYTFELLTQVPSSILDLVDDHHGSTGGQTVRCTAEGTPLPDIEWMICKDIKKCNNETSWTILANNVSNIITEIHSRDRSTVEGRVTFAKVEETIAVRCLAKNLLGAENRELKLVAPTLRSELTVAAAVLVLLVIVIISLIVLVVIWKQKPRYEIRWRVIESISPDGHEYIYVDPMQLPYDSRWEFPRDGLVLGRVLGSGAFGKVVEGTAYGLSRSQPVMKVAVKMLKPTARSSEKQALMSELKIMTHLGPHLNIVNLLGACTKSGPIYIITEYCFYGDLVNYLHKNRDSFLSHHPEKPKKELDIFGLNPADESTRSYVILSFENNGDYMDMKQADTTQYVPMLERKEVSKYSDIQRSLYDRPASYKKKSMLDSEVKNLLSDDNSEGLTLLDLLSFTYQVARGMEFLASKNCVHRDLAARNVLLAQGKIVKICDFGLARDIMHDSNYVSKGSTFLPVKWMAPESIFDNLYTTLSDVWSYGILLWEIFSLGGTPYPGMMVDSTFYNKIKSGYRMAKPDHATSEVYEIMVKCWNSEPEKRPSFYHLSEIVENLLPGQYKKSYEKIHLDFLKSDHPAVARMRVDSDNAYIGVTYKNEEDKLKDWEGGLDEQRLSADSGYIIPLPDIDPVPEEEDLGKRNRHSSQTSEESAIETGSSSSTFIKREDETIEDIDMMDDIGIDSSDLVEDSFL
Chain of Protein cereblon/Platelet-derived growth factor receptor alpha (Q96SW2 whole entry): as the sequence (Q96SW2 whole entry) above
Series [18] deals with T2, Tyrosine-protein kinase ABL1. Kind of series: Safety index, ratio of compound IC50 to ponatinib IC50 for inhibition of human ABL T315I mutant using EAIYAAPFAKKK substrate and [gamma-33P]-ATP incubated for 40 mins by scintillation counting method.
In series [19] the target is T3, Proto-oncogene tyrosine-protein kinase Src. In words: Safety index, ratio of compound IC50 to ponatinib IC50 for inhibition of human c-SRC using poly(Glu,Tyr)4:1 substrate and [gamma-33P]-ATP incubated for 40 mins by scintillation counting method.

Active and inactive are the calls of the source. The calls are words filed in the database; no cut-off is given here.

T3 sequence (P12931 2-536 limits assumed): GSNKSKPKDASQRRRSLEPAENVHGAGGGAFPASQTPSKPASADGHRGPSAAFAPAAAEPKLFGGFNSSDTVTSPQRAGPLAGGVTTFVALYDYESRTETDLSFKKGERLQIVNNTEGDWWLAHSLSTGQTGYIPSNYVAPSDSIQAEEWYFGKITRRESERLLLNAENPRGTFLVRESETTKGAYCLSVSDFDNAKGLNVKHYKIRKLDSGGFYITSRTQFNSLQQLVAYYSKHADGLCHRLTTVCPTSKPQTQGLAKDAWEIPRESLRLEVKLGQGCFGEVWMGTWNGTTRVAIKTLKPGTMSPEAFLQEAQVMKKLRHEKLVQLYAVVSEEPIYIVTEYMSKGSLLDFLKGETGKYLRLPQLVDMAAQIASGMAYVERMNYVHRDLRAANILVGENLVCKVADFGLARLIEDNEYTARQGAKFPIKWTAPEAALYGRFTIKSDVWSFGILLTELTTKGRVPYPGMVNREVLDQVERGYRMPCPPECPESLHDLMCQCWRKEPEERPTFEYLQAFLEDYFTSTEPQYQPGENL
Chain of Protein cereblon/Proto-oncogene tyrosine-protein kinase Src (P12931 2-536 limits assumed): as above
Chain of Protein cereblon/Proto-oncogene tyrosine-protein kinase Src (Q96SW2 whole entry): as the sequence (Q96SW2 whole entry) above
Chain of Tyrosine-protein kinase Lyn (P07948 whole entry): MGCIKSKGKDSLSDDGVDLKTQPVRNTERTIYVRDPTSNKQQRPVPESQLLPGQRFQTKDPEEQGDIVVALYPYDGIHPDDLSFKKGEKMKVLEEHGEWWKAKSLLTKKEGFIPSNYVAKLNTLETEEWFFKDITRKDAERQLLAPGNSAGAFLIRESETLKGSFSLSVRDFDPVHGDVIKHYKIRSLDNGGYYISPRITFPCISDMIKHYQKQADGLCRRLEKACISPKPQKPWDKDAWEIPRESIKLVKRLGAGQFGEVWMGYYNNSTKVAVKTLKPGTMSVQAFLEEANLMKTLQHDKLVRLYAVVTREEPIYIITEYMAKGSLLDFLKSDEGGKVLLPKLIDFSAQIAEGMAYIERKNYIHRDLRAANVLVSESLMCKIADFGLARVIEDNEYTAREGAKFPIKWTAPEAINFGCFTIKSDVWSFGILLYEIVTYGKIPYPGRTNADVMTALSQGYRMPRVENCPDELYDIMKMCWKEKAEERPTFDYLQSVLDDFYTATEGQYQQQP

As to `Cc1ccc(C(=O)Nc2ccc(CN3CCN(C(=O)CCCc4cn(CCOCCOCCOCCNc5cccc6c5C(=O)N(C5CCC(=O)NC5=O)C6=O)nn4)CC3)c(C(F)(F)F)c2)cc1C#Cc1cnc2cccnn12` (configuration not stated), the 50% degradation concentration (DC50) in [1] worked out at 0.02 µM. Moreover, the IC50 is 0.0075 µM in the series on K562; 0.0131 µM in series [8]; 0.0442 µM in series [9]; 2.58 µM in [10]; 0.441 µM in series [11]; above 0.3 µM in series [14]. For the same molecule, the outcome in series [2], in series [4], in series [5] and in series [6] was Active. The EC50 is above 10 µM with BaF3, 0.0285 µM in series [3], above 10 µM in the series on H9c2 and above 10 µM with HUVEC [7]. The Activity result in the series with HUVEC [12] is “Non-Toxic”; in [15], “Not Active”; in series [16], “Not Active”; in series [17], “Not Active”. The CI in [13] is below 1. For the same molecule, the “Ratio IC50” value in series [18] was 13; in [19] it was 257.
